Holding throughout (format): cell-based, human
One test has as its system WT1+ epicardial cells. Put plainly: ALDH1A2 expression (qRT-PCR) and Aldefluor staining (flow cytometry) after EMT induction. The settings on record: cultures in which EMT had been induced, versus non-treated passaged epicardial cells. The source says: FIG. 17. WT1^+ epicardial cells upregulate ALDH1A2 expression and display aldehyde dehydrogenase activity following passage. (a) qRT-PCR-based expression analyses of ALDH1A1, ALDH1A2 and ALDH1A3 in D15 WT^+ epicardial cultures and Day 15+8 post-passage non-treated epicardial cultures. Values are relative to the housekeeping gene TBP. Error bars represent standard deviation from the mean of the values from three independent experiments (N=3); *P≤0.05, **P≤0.01 compared to ALDH1A2 expression levels. (b) qRT-PCR-based expression analyses of ALDH1A2 on days 2, 4, 6 and 8 following the initiation of EMT. Values are expressed as fold change to experiment-matched pre-passaged day 15 WT1^+ epicardial cultures. Error bars represent standard deviation from the mean of the values from three independent experiments (N=3); *P≤0.05, **P≤0.01 compared to no treatment control cultures. (c) Flow cytometric analyses of Aldefluor on day 15 populations generated from cells treated from days 4 to 6 with DM (non-cardiac, non-epicardial), BMP4+XAV (cardiomyocytes) or BMP4+CHIR (WT1^+ epicardial cells). (d) Flow cytometry analyses of Aldefluor on WT1^+ epicardium-derived cultures 8 days following the initiation of EMT with the indicated treatments. […]
In general terms: Quantitative PCR measures a nucleic acid by following its amplification.

In another test the test system is hPSC-derived Epi cells. Put plainly: Matrigel invasion assay eight days after EMT induction, confocal microscopy and 3D reconstruction. As to conditions: eight days following induction of EMT. The source says: (a) Representative fields of view in the XY plane (top view) and 3D reconstruction (side view) of the matrigel invasion assay on D8 after EMT induction.
(b) Maximum matrigel invasion depth on D8 following EMT initiation. Bars represent standard error of the mean of the values from three independent experiments (N=3); **P≤0.01 compared to non-treated controls as analyzed by Student's T-test.
It is well established that during heart development EPDCs, and in particular cardiac fibroblasts, invade the myocardial layer^33. To assess this potential of the hPSC-derived Epi cells, their ability to invade a 3D layer of Matrigel following induction of EMT with the different factors was measured. To enable us to easily track the migration of the cells, the Epi population was generated from GFP expressing hESCs^48. Matrigel invasion was monitored eight days following the induction of EMT by confocal microscopy and evaluated using 3D image reconstruction (FIG. 16a). […] Along with invasion, bFGF treatment also led to an increase in total cell number within the regions of interest (ROI). […] To further quantify the degree of invasion, the proportion of cells in each population that migrated to different depths was calculated. Virtually all of the cells in the non-induced, the TGFβ-induced and TGFβ+bFGF-induced populations were detected within the first 200 μm of the gel. In contrast, approximately half of the cells in the bFGF-induced population migrated beyond this depth, some as far as 600 μm.

Test [1] concerns hESC-derived WT1+ epicardial cells. Put plainly: EMT induction in passaged day 15 WT1+ epicardial cells; qRT-PCR, flow cytometry, immunostaining. The settings on record: for WT1 expression over time after EMT initiation: qRT-PCR, eight-day culture. The protocol: FIG. 11. WT1^+ epicardial cells undergo EMT in response to TGFβ1 and bFGF treatment. (a) Scheme of the protocol used for EMT induction. Day 15 WT1+ cultures are passaged, allowed to settle for 1 day and then treated with TGFβ1 (5 ng/ml) for 4 days followed by no treatment (TGFβ), sequential treatment with […] (5 ng/ml) for 4 days followed by bFGF (10 ng/ml) for 4 days (TGFβ+bFGF), or bFGF (10 ng/ml) treatment for 8 days (bFGF). No treatment of the cultures serves as a control. (b) Flow cytometric analyses of cultures 8 days following the initiation of EMT for the cell surface mesenchymal marker CD90. Gray filled histogram indicates control culture fluorescence intensity. (c) qRT-PCR-based expression of the epicardial gene WT1 and the EMT-induced genes SNAI1 and SNAI2 on days 2, 4, 6 and 8 after EMT initiation. Values are expressed as fold change to experiment-matched pre-passaged day 15 WT1+ cultures. Error bars represent standard deviation from the mean of the values from three independent experiments (N=3); *P≤0.05, **P≤0.01 compared to no treatment control.
FIG. 12. WT1 and ZO1 expression is lost in response to EMT. Phase contrast and fluorescent immunostaining showing cell morphology and the expression of ZO1 and WT1 proteins in epicardial cultures 8 days after EMT initiation with the indicated factors.
FIG. 13. EPDCs display characteristic expression of fibroblasts and vascular smooth muscle cell markers by fluorescent immunostaining. Fluorescent immunostaining showing α-Smooth muscle actin (SMA) and Vimentin (VIM) protein in cultures 8 days after EMT initiation with the indicated factors.
FIG. 14. EPDCs display characteristic expression of fibroblasts and vascular smooth muscle cell markers by qRT-PCR. qRT-PCR-based expression analyses of the smooth muscle genes […], MYH11, TAGLN and SMTN and the epicardial/cardiac fibroblast gene TCF21 in the indicated cultures 8 days after EMT initiation. Values are expressed as fold change to experiment-matched pre-passaged day 15 WT1^+ epicardium cultures. Error bars represent standard deviation from the mean of the values from three independent experiments (N=3); *P≤0.05, **P≤0.01 compared to no treatment control cultures.
To determine if the hESC-derived WT1^+ epicardial-like cells can undergo EMT, an assay was designed in which D15 epicardial cells are passaged, allowed one day to recover, and then treated for a total of eight days with one of four treatment regimens. The regimens consisted of: 1) TGFβ-1 for four days followed by four days with no additional factor (TGFβ), 2) TGFβ-1 for four days followed by four days with bFGF (TGFβ+bFGF), 3) bFGF for eight days (bFGF) or 4) no additional factors for eight days (FIG. 11a). Following culture under the different conditions, the cells were harvested and analyzed by qRT-PCR and flow cytometry.

For test [2], the system named is hESC epicardial-derived smooth muscle-like cells. The test can be described thus: Calcium transients of EMT-induced cells after norepinephrine (NE) and phenylephrine (PE) stimulation. The procedure:
(a) The total proportion of actively cycling cells in EMT-induced cultures was measured for the indicated treatments. Treatment with TGFβ+bFGF generated populations with the largest proportion of actively cycling cells in response to agonists. Bars represent standard error of the mean; N=3/group; *P<0.05, **P<0.01 compared by one-way ANOVA with Tukey post hoc test. (b) The frequency of calcium cycles in actively cycling cells in the conditions as indicated at baseline and after NE and PE addition. Stacked bars represent the contribution to frequency of calcium cycling during baseline recording (hatched lines), and after NE (white) or PE (black) treatment. (c) The amplitude of calcium transients after NE and PE addition in the EMT induced cultures. No Treatment NE N=6 cells, PE N=4 cells; TGFβ NE N=6 cells, PE N=12 cells; TGFβ+bFGF NE N=13 cells, PE N=25 cells. *P<0.05 compared by one-way ANOVA with Tukey post hoc test. (d) The duration of calcium transients after NE and PE addition in the EMT induced cultures. […]
To test the contractile function of the smooth muscle-like cells generated following the EMT induced with TGFβ and TGFβ+bFGF, calcium transients were measured following stimulation with norepinephrine (NE) and phenylephrine (PE) using previously described methods^32. […]

Where [3] appears, read: qRT-PCR 8 days after EMT initiation.

A value given as a limit tells only on which side of the number the result lay.

The source of these data is patent publication US10711246B2, “Methods and compositions for generating epicardium cells” (UNIVERSITY HEALTH NETWORK, priority 2013, dated 2020).

As to TGFβ-1, in the test with WT1+ epicardial cells, the “ALDH1A2 expression and Aldefluor staining” value was “dramatically lower levels”. In the test with hPSC-derived Epi cells, the “Matrigel invasion (migratory behaviour, depth)” value is given as “little capacity to invade the Matrigel” and the “total cell number within the regions of interest” value turned out to be 56.8±9.5 cells per ROI. In addition, the “ZO1 (and WT1) expression by immunostaining” value in test [1] (8 days after EMT initiation) is “internalized or lost”. The “vimentin (VIM) immunostaining” value in test [1] (8 days after EMT initiation, compared with bFGF alone) is given as “substantially brighter staining”. In addition, the “α-smooth muscle actin (SMA) immunostaining” value in test [1] (compared to bFGF or absence of factors) is on record as “higher levels”. For the same substance, in test [1] (setting [3]), the “expression of smooth muscle genes CNN1, MYH11, TAGLN, SMTN and fibroblast marker TCF21” value was “upregulated expression of CNN1, MYH11, TAGLN and SMTN but not TCF21”. The SNAI2 expression result in test [1] (qRT-PCR after EMT initiation) was “increases in SNAI2 expression”. In test [1], the “WT1 expression over time after EMT initiation” value is given as “steady decreases in WT1 expression”. Moreover, the “amplitude of calcium response” value in test [2] (PE-treated, compared to control cultures) is recorded as “greatest”. The calcium cycling rates result in test [2] (following PE stimulation, cells that exhibited calcium transients) is reported as “faster calcium cycling rates than those in the non-induced control cultures”.

For bFGF, in the test with WT1+ epicardial cells, the “ALDH1A2 expression and Aldefluor staining” value is on record as “dramatically lower levels”. Besides, in the test on hPSC-derived Epi cells, the “Matrigel invasion (migratory behaviour, depth)” value was “most migratory and invaded the matrigel to the greatest depth”; the “proportion of cells that migrated beyond 200 μm” value was “approximately half”; the “total cell number within the regions of interest” value is recorded as 379.7±40.5 cells per ROI. Besides, the “farthest depth of migration” value with hPSC-derived Epi cells (some cells) is listed as ≤ 600 μm. For the same substance, the “ZO1 (and WT1) expression by immunostaining” value in test [1] (8 days after EMT initiation) was “internalized or lost”. In addition, in test [1] (setting [3]), the MYH11 expression entry is on record as “did not express MYH11”; the “expression of smooth muscle genes CNN1, MYH11, TAGLN, SMTN and fibroblast marker TCF21” value was “expressed TCF21 in addition to CNN1, TAGLN and SMTN”. In test [1] (qRT-PCR after EMT initiation), the SNAI1 expression result is on record as “induced the expression of SNAI1” and the SNAI2 expression entry is listed as “increases in SNAI2 expression”. In addition, the “WT1 expression over time after EMT initiation” value in test [1] is given as “did not decline below those of the control”.
